Measured values published in ChEMBL document CHEMBL3632507, “Discovery of novel VEGFR-2 inhibitors. Part 5: Exploration of diverse hinge-binding fragments via core-refining approach” (Eur J Med Chem, 2015).

How the values were obtained:
[1] = test system: A549; test: Antiproliferative activity against human A549 cells assessed as cell growth inhibition after 48 hrs by MTT assay; conditions: A549, 48 h
[2] = Antiproliferative activity against human SMMC7721 cells assessed as cell growth inhibition after 48 hrs by MTT assay; conditions: SMMC-7721, 48 h
[3] = target: Vascular endothelial growth factor receptor 2 (Homo sapiens, UniProt P35968); test: Inhibition of VEGFR-2 (unknown origin) after 1 hr by ADP-Glo assay
Sequence of Vascular endothelial growth factor receptor 2 (P35968 whole entry): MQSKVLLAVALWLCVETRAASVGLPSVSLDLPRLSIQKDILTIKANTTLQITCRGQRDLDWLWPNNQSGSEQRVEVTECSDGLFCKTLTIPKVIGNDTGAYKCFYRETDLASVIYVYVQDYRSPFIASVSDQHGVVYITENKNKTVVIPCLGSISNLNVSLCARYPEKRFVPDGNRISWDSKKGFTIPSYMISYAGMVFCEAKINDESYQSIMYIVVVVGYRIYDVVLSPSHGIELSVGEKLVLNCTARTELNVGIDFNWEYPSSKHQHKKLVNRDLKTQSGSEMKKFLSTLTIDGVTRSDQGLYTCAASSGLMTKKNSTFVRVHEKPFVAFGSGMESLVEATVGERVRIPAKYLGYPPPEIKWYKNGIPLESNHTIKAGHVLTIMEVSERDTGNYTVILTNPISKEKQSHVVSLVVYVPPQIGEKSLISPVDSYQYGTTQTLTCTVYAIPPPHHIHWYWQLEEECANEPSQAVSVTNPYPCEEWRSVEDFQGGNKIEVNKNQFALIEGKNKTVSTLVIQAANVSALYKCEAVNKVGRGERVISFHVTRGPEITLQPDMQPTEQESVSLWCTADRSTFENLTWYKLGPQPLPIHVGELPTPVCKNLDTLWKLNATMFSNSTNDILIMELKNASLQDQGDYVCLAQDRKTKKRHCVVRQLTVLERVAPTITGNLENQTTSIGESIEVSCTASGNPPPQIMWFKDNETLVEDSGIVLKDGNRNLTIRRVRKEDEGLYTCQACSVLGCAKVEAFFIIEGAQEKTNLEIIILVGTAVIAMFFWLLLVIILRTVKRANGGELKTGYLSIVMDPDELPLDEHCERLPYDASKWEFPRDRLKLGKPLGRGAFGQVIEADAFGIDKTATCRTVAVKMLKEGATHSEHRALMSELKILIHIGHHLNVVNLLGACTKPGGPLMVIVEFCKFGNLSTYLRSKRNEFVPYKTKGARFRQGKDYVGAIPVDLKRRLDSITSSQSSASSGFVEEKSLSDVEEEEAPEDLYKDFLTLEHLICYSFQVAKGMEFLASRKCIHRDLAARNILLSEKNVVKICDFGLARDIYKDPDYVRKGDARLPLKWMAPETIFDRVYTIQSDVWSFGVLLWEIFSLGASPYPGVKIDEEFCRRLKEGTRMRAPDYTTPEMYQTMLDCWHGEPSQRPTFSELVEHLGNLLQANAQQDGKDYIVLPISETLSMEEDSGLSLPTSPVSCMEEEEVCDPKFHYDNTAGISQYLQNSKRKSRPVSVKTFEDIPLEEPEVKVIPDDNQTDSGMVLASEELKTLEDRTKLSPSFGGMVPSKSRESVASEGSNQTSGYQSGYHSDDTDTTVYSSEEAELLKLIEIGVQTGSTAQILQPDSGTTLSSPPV

Row | SMILES | IC50 [1] [nM] | IC50 [2] [nM] | IC50 [3] [nM]
1 | COc1ccc(C(=O)OCCN(C)C)cc1NC(=O)Nc1cc(-c2cccnc2)cc(C(F)(F)F)c1 | 2490 | 860 | –
2 | COc1ccc(C(=O)OCCN(C)C)cc1NC(=O)Nc1cc(-c2cncnc2)cc(C(F)(F)F)c1 | 1660 | 1390 | > 500000
3 | COc1ccc(C(=O)OCCN(C)C)cc1NC(=O)Nc1cc(-c2cccnc2)ccc1OC(F)(F)F | 1010 | 1380 | –
4 | COc1ccc(C(=O)OCCN(C)C)cc1NC(=O)Nc1cc(-c2ccc3[nH]ccc3c2)ccc1OC(F)(F)F | 950 | 1760 | –
5 | COc1ccc(-c2ccc(OC(F)(F)F)c(NC(=O)Nc3cc(C(=O)OCCN(C)C)ccc3OC)c2)cn1 | 910 | 2010 | –
6 | COc1ccc(C(=O)OCCN(C)C)cc1NC(=O)Nc1cc(-c2cncnc2)ccc1OC(F)(F)F | 14700 | 6150 | –
7 | CCN(CC)CCOC(=O)c1ccc(OC)c(NC(=O)Nc2cc(-c3ccc4[nH]ccc4c3)ccc2OC(F)(F)F)c1 | 990 | 570 | –
8 | CCN(CC)CCOC(=O)c1ccc(OC)c(NC(=O)Nc2cc(-c3ccc(OC)nc3)ccc2OC(F)(F)F)c1 | 1730 | 640 | –
9 | CCN(CC)CCOC(=O)c1ccc(OC)c(NC(=O)Nc2cc(-c3cncnc3)ccc2OC(F)(F)F)c1 | > 500000 | 3430 | > 500000
10 | COc1ccc(C(=O)OCCN(C(C)C)C(C)C)cc1NC(=O)Nc1cc(-c2cccnc2)cc(C(F)(F)F)c1 | 1910 | 730 | –
11 | COc1ccc(C(=O)OCCN(C(C)C)C(C)C)cc1NC(=O)Nc1cc(-c2ccc3[nH]ccc3c2)cc(C(F)(F)F)c1 | 1570 | 410 | > 500000
12 | COc1ccc(C(=O)OCCN(C(C)C)C(C)C)cc1NC(=O)Nc1cc(-c2ccc3[nH]ccc3c2)ccc1OC(F)(F)F | 2060 | 360 | > 500000
13 | COc1ccc(C(=O)OCCN(C(C)C)C(C)C)cc1NC(=O)Nc1cc(-c2cncnc2)ccc1OC(F)(F)F | 3970 | 920 | > 500000
14 | COc1ccc(C(=O)OCCN(C(C)C)C(C)C)cc1NC(=O)Nc1cc(-c2cn[nH]c2)ccc1OC(F)(F)F | 1520 | 1230 | > 500000
15 | COc1ccc(C(=O)OCCN(C(C)C)C(C)C)cc1NC(=O)Nc1cc(-c2cnn(C)c2)ccc1OC(F)(F)F | > 500000 | > 500000 | > 500000
16 | COc1ccc(C(=O)OCCN2CCOCC2)cc1NC(=O)Nc1cc(-c2cccnc2)cc(C(F)(F)F)c1 | > 500000 | 11100 | > 500000
17 | COc1ccc(C(=O)OCCN2CCOCC2)cc1NC(=O)Nc1cc(-c2ccc3[nH]ccc3c2)cc(C(F)(F)F)c1 | 1240 | 1770 | > 500000
18 | COc1ccc(C(=O)OCCN2CCOCC2)cc1NC(=O)Nc1cc(-c2cncnc2)ccc1OC(F)(F)F | 1280 | 10800 | –
19 | COc1ccc(C(=O)OCCN2CCOCC2)cc1NC(=O)Nc1cc(-c2cn[nH]c2)ccc1OC(F)(F)F | > 500000 | 2550 | –
20 | Nc1n[nH]c2cccc(-c3cccc(NC(=O)Nc4ccccc4F)c3)c12 | 1170 | 2360 | –

Row | SMILES | IC50 [1] [nM] | IC50 [2] [nM] | IC50 [3] [nM]
21 | Nc1n[nH]c2cccc(-c3cccc(NC(=O)Nc4cccc(F)c4)c3)c12 | 1360 | 1240 | –
22 | Nc1n[nH]c2cccc(-c3cccc(NC(=O)Nc4ccc(F)cc4)c3)c12 | > 500000 | > 500000 | –
23 | Nc1n[nH]c2cccc(-c3cccc(NC(=O)Nc4ccccc4Cl)c3)c12 | 15800 | > 500000 | –
24 | Nc1n[nH]c2cccc(-c3cccc(NC(=O)Nc4cccc(Cl)c4)c3)c12 | 1720 | 1830 | –
25 | Cc1ccc(NC(=O)Nc2cccc(-c3cccc4[nH]nc(N)c34)c2)cc1 | 1660 | 4450 | –
26 | CC(C)c1cccc(NC(=O)Nc2cccc(-c3cccc4[nH]nc(N)c34)c2)c1 | 1420 | 280 | –
27 | Nc1n[nH]c2cccc(-c3cccc(NC(=O)Nc4cccc(C(F)(F)F)c4)c3)c12 | 1950 | 1410 | –
28 | COc1cccc(NC(=O)Nc2cccc(-c3cccc4[nH]nc(N)c34)c2)c1 | 2490 | 2860 | –
29 | Cc1cccc(C)c1NC(=O)Nc1cccc(-c2cccc3[nH]nc(N)c23)c1 | 229000 | > 500000 | > 500
30 | Nc1n[nH]c2cccc(-c3cccc(NC(=O)Nc4ccc(F)c(F)c4)c3)c12 | 3040 | 5880 | > 500
31 | Nc1n[nH]c2cccc(-c3cccc(NC(=O)Nc4ccc(Cl)cc4Cl)c3)c12 | > 500000 | 1900 | –
32 | Nc1n[nH]c2cccc(-c3cccc(NC(=O)Nc4cc(C(F)(F)F)cc(C(F)(F)F)c4)c3)c12 | 1510 | 3540 | –
33 | Cc1ccc(NC(=O)Nc2cccc(-c3cccc4[nH]nc(N)c34)c2)cc1Cl | 1750 | 510 | –
34 | Nc1n[nH]c2cccc(-c3cccc(NC(=O)Nc4ccc(Cl)c(C(F)(F)F)c4)c3)c12 | 3410 | 1150 | –
35 | Nc1n[nH]c2cccc(-c3cccc(NC(=O)Nc4nccs4)c3)c12 | > 500000 | 550 | > 500
36 | Nc1n[nH]c2cccc(-c3ccc(NC(=O)Nc4ccc5c(c4)OCO5)cc3)c12 | 5230 | 530 | –
37 | Cc1ccnc(NC(=O)Nc2ccc(-c3cccc4[nH]nc(N)c34)cc2)c1 | 1160 | 430 | > 500
38 | CN(C)CCOc1ccc(NC(=O)Nc2ccc(-c3cccc4[nH]nc(N)c34)cc2)cc1F | > 500000 | 600 | –
39 | CNC(=O)c1cc(Oc2ccc(NC(=O)Nc3ccc(Cl)c(C(F)(F)F)c3)cc2)ccn1 [SORAFENIB] | 1450 | 650 | –
